In patent US9149038B2, “4-amino-6-(heterocyclic)picolinates and 6-amino-2-(heterocyclic)pyrimidine-4-carboxylates and their use as herbicides” (Dow AgroSciences LLC, priority 2013, dated 2015):
Like-named read-outs stand apart in the source and are kept apart here.

Experiments:
Format in all cases: in vivo
[1] = system: Key Grass and Sedge Weeds as well as Grass Crops; test: Post-Emergent Test II: postemergent herbicidal activity, visual rating after 14 d (Table 8); conditions: post-emergence, 336 h; for pest or weed control at 35 g/ha: 35 g ai/ha; for pest or weed control at 70 g/ha: 70 g ai/ha; for pest or weed control at 140 g/ha: 140 g ai/ha
Summary of the method: (§1)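 Post-emergence foliar spray, 187 L/ha, first/second true leaf stage plants in potting mix (pH 6.0-6.8). Rates: top rate and 2-fold serial dilutions to 1/16×. Solvent-blank controls. Readout: visual % kill at 14 d.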

[2] = system: Key Broadleaf and Grass Weed as well as Crop Species; test: Post-Emergent Test I: postemergent herbicidal activity, visual phytotoxicity rating 10 days after treatment (Table 5); conditions: 3.96 kg ai/ha; for pest or weed control at 3960 g/ha: post-emergence, 240 h, 10 days after application
Summary of the method: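 Plants grown 8-12 d in greenhouse (16 h photoperiod, 24-29° C.) before spraying compounds in acetone-DMSO/water-isopropanol-crop oil concentrate with 0.02% Triton X-155 at roughly 4.0, 2.0, 1.0 and 0.5 kg/ha. Injury scored visually 10 days after treatment, 0 (no activity) to 100 (complete plant death).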

[3] = system: Key Broadleaf Weed and Crop Species; test: Post-Emergent Test II: postemergent herbicidal activity, visual rating after 14 d (Table 7); conditions: post-emergence, 336 h; for pest or weed control at 35 g/ha: 35 g ai/ha; for pest or weed control at 70 g/ha: 70 g ai/ha; for pest or weed control at 140 g/ha: 140 g ai/ha
Summary of the method: as §1

[4] = barnyardgrass (Echinochloa crus-galli), read-out: Visual Growth Reduction (%) 14 Days After Application ECHCG
[5] = giant foxtail (Setaria faberi), read-out: Visual Growth Reduction (%) 14 Days After Application SETFA
[6] = maize, corn (Zea mays), read-out: Visual Growth Reduction (%) 14 Days After Application ZEAMX
[7] = rice (Oryza sativa), read-out: Visual Growth Reduction (%) 14 Days After Application ORYSA
[8] = wheat, spring (Triticum aestivum), read-out: Visual Growth Reduction (%) 14 Days After Application TRZAS
[9] = yellow nutsedge (Cyperus esculentus), read-out: Visual Growth Reduction (%) 14 Days After Application CYPES
[10] = lambsquarters (Chenopodium album), read-out: Visual Growth Reduction (%) 14 Days After Application CHEAL
[11] = oilseed rape, canola (Brassica napus), read-out: Visual Growth Reduction (%) 14 Days After Application BRSNN
[12] = redroot pigweed (Amaranthus retroflexus), read-out: Visual Growth Reduction (%) 14 Days After Application AMARE
[13] = sunflower (Helianthus annuus), read-out: Visual Growth Reduction (%) 14 Days After Application HELAN
[14] = velvetleaf (Abutilon theophrasti), read-out: Visual Growth Reduction (%) 14 Days After Application ABUTH
[15] = wild poinsettia (Euphorbia heterophylla), read-out: Visual Growth Reduction (%) 14 Days After Application EPHHL

COC(=O)c1nc(-c2cccc3c2OC(F)(F)O3)c(F)c(N)c1Cl [Compound 73]
pest or weed control at 35 g/ha [1, 4]: 0 to 29%
pest or weed control at 70 g/ha [1, 4]: 0 to 29%
pest or weed control at 140 g/ha [1, 4]: 0 to 29%
pest or weed control at 35 g/ha [1, 5]: 0 to 29%
pest or weed control at 70 g/ha [1, 5]: 0 to 29%
pest or weed control at 140 g/ha [1, 5]: 0 to 29%
pest or weed control at 35 g/ha [1, 6]: 0 to 29%
pest or weed control at 70 g/ha [1, 6]: 0 to 29%
pest or weed control at 140 g/ha [1, 6]: 0 to 29%
pest or weed control at 35 g/ha [1, 7]: 0 to 29%
pest or weed control at 70 g/ha [1, 7]: 0 to 29%
pest or weed control at 140 g/ha [1, 7]: 0 to 29%
pest or weed control at 35 g/ha [1, 8]: 0 to 29%
pest or weed control at 70 g/ha [1, 8]: 0 to 29%
pest or weed control at 140 g/ha [1, 8]: 0 to 29%
pest or weed control at 35 g/ha [1, 9]: 0 to 29%
pest or weed control at 70 g/ha [1, 9]: 45 to 59%
pest or weed control at 140 g/ha [1, 9]: 45 to 59%
Visual Growth Reduction (%) 10 Days After Application ECHCG ([2]; barnyardgrass (Echinochloa crus-galli)): G (0-29)
pest or weed control at 3960 g/ha ([2]; giant foxtail (Setaria faberi), read-out: Visual Growth Reduction (%) 10 Days After Application SETFA): 0 to 29%
pest or weed control at 3960 g/ha ([2]; ivyleaf morningglory (Ipomoea hederecea), read-out: Visual Growth Reduction (%) 10 Days After Application IPOHE): 75 to 84%
pest or weed control at 3960 g/ha ([2]; sunflower (Helianthus annuus), read-out: Visual Growth Reduction (%) 10 Days After Application HELAN): 95 to 100%
pest or weed control at 3960 g/ha ([2]; wild oats (Avena fatua), read-out: Visual Growth Reduction (%) 10 Days After Application AVEFA): 0 to 29%
pest or weed control at 35 g/ha [3, 10]: 95 to 100%
pest or weed control at 70 g/ha [3, 10]: 95 to 100%
pest or weed control at 140 g/ha [3, 10]: 95 to 100%
pest or weed control at 35 g/ha [3, 11]: 85 to 94%
pest or weed control at 70 g/ha [3, 11]: 95 to 100%
pest or weed control at 140 g/ha [3, 11]: 95 to 100%
pest or weed control at 35 g/ha [3, 12]: 95 to 100%
pest or weed control at 70 g/ha [3, 12]: 95 to 100%
pest or weed control at 140 g/ha [3, 12]: 95 to 100%
pest or weed control at 35 g/ha [3, 13]: 75 to 84%
pest or weed control at 70 g/ha [3, 13]: 85 to 94%
pest or weed control at 140 g/ha [3, 13]: 95 to 100%
pest or weed control at 35 g/ha [3, 14]: 75 to 84%
pest or weed control at 70 g/ha [3, 14]: 75 to 84%
pest or weed control at 140 g/ha [3, 14]: 85 to 94%
pest or weed control at 35 g/ha [3, 15]: 0 to 29%
pest or weed control at 70 g/ha [3, 15]: 0 to 29%
pest or weed control at 140 g/ha [3, 15]: 0 to 29%
